Among the data in patent US10034861B2 (priority 2016, dated 2018) are IC50 values, retold here.

The structures appear in SMILES notation. Read-outs that look alike come from different tables or passages of the source.

Holding throughout (format): biochemical
For one assay, the target named is PDE1C (Homo sapiens (Human), UniProt Q14123). Put plainly: biochemical. An excerpt: (§1) Table 1 lists the IC50 value for inhibition of PDE1 by the compounds of the invention. […] PDE1 assays are described in the Experimental Section.
A further assay deals with PDE1B (Homo sapiens (Human), UniProt Q01064). Put plainly: PDE1 inhibition assay (PDE1B). Particulars: PDE1B, IC50 (nM), 15 nM tritium labelled cAMP, 1 hr at room temperature, SPA beads.
Description: as §1

A further assay addresses PDE1A (Homo sapiens (Human), UniProt P54750). The assay is described as follows: biochemical. Particulars: 15 nM tritium labelled cAMP, 1 hr at room temperature, SPA beads.
Description: as §1

Where [1] appears, read: 15 nM tritium labelled cAMP, 1 hr at room temperature, SPA beads.

PDE1A, sequence (P54750 whole entry): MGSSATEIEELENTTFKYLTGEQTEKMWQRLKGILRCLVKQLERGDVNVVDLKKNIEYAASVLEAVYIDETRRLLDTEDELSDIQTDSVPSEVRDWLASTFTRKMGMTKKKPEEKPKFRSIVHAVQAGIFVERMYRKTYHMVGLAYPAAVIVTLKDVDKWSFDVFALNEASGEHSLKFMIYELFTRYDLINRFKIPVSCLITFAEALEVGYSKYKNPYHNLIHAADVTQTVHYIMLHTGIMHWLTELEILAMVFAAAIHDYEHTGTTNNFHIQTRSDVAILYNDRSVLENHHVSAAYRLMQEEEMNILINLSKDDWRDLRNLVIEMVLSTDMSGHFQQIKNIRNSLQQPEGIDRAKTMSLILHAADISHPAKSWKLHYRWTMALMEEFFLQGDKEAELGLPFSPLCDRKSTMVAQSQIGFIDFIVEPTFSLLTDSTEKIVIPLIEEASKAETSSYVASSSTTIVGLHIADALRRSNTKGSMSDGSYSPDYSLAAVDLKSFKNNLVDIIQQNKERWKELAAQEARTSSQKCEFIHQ
PDE1C, sequence (Q14123 whole entry): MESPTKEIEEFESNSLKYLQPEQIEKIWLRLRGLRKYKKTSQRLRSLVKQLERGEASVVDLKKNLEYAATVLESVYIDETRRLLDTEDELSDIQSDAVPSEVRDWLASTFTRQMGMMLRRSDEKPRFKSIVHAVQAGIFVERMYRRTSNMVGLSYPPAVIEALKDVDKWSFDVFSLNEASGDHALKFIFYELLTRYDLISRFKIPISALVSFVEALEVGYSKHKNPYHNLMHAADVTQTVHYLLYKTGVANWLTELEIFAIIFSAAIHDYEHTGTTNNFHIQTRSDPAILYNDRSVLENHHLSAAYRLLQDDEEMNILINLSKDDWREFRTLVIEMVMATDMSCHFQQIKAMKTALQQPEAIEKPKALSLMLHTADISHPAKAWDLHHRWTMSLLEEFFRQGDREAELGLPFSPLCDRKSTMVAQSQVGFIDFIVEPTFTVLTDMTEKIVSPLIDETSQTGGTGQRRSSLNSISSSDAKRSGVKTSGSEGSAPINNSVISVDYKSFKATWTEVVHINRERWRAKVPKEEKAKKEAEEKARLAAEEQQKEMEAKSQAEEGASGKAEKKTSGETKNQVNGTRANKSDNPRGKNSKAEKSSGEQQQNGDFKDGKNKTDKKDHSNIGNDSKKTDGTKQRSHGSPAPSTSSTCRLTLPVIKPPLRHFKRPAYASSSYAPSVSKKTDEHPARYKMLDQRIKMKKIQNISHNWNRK
PDE1B, sequence (Q01064 whole entry): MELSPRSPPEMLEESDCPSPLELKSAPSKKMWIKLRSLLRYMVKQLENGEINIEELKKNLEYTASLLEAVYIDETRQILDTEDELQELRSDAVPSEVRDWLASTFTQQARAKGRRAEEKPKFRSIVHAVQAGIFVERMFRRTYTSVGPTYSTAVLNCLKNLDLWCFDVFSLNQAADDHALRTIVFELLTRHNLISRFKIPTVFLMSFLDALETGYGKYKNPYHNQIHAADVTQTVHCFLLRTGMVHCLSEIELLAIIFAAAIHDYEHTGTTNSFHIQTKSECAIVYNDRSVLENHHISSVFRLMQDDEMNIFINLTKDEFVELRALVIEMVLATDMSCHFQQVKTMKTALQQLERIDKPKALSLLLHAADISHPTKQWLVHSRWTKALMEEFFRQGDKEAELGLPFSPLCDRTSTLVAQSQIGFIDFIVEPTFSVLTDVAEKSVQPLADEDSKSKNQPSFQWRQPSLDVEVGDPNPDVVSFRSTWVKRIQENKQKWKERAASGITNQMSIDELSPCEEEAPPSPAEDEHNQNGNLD

For `CCOc1ncccc1-c1cc(NCc2cc[nH]n2)c2c(n1)c(C)nn2C(C)CC` (single isomer, unassigned) [Example 120, 5-(2-ethoxy-3-pyridyl)-3-methyl-1-[1-methylpropyl]-N-(1H-pyrazol-3-ylmethyl)pyrazolo[4,3-b]pyridin-7-amine], on PDE1C, half-maximal inhibition (IC50) required 7.6 nM.

Regarding `CCOc1ncccc1-c1cc(NCc2ncn(C)n2)c2c(n1)c(C)nn2C(C)CC` (single isomer, unassigned) [Example 121, 5-(2-ethoxy-3-pyridyl)-3-methyl-1-[1-methylpropyl]-N-[(1-methyl-1,2,4-triazol-3-yl)methyl]pyrazolo[4,3-b]pyridin-7-amine], the IC50 at PDE1B turned out to be 0.47 nM. That is a sub-nanomolar value.

For `CCOc1ncccc1-c1cc(NCc2nnn(C)n2)c2c(n1)c(C)nn2C(C)CC` (single isomer, unassigned) [Example 127, 5-(2-ethoxy-3-pyridyl)-3-methyl-1-[1-methylpropyl]-N-[(2-methyltetrazol-5-yl)methyl]pyrazolo[4,3-b]pyridin-7-amine], on PDE1B, the IC50 came out at 0.31 nM.

On PDE1B, `CCOc1ncccc1-c1cc(NCc2noc(C)n2)c2c(n1)c(C)nn2C(C)CC` (single isomer, unassigned) [Example 128, 5-(2-ethoxy-3-pyridyl)-3-methyl-N-[(5-methyl-1,2,4-oxadiazol-3-yl)methyl]-1-[1-methylpropyl]pyrazolo[4,3-b]pyridin-7-amine] came in with an IC50 of 0.26 nM. The IC50 values of the last two molecules are within 1.5-fold of each other.

Consider `CCOc1ncccc1-c1cc(NCc2cc(C)[nH]n2)c2c(n1)c(C)nn2C(C)CC` (single isomer, unassigned) [Example 131, 5-(2-ethoxy-3-pyridyl)-3-methyl-1-[1-methylpropyl]-N-[(5-methyl-1H-pyrazol-3-yl)methyl]pyrazolo[4,3-b]pyridin-7-amine], for which the IC50 on PDE1B turned out to be 0.042 nM.

`CCOc1ncccc1-c1cc(NCc2cn(C)cn2)c2c(n1)c(C)nn2C(C)CC` (single isomer, unassigned) [Example 132, 5-(2-ethoxy-3-pyridyl)-3-methyl-N-[(1-methylimidazol-4-yl)methyl]-1-[1-methylpropyl]pyrazolo[4,3-b]pyridin-7-amine] showed an IC50 at PDE1B of 0.045 nM.

Take `CCCOc1ncccc1-c1cc(NCc2cc[nH]n2)c2c(n1)c(C)nn2C(C)CC` (single isomer, unassigned) [Example 135, 3-methyl-1-[1-methylpropyl]-5-(2-propoxy-3-pyridyl)-N-(1H-pyrazol-3-ylmethyl)pyrazolo[4,3-b]pyridin-7-amine]: the IC50 on PDE1A worked out at 1.9 nM; on PDE1C (setting [1]) it was 3.6 nM.

On to `CCOc1ncccc1-c1cc(NCc2cc[nH]n2)c2c(cnn2C(C)CC)n1` (single isomer, unassigned) [Example 137, 5-(2-ethoxy-3-pyridyl)-1-[1-methylpropyl]-N-(1H-pyrazol-3-ylmethyl)pyrazolo[4,3-b]pyridin-7-amine], for which the IC50 against PDE1A came out at 180 nM; on PDE1C it was 340 nM.

With `CCOc1ncccc1-c1cc(NCc2nnc(C)o2)c2c(cnn2C(C)CC)n1` (single isomer, unassigned) [Example 139, 5-(2-ethoxy-3-pyridyl)-N-[(5-methyl-1,3,4-oxadiazol-2-yl)methyl]-1-[1-methylpropyl]pyrazolo[4,3-b]pyridin-7-amine], the IC50 against PDE1A is 330 nM; at PDE1C, 530 nM.

In the case of `CCOc1ncccc1-c1cc(NCc2cnc(C)o2)c2c(n1)c(C)nn2C(C)C` [Example 4, 5-(2-ethoxy-3-pyridyl)-1-isopropyl-3-methyl-N-[(2-methyloxazol-5-yl)methyl]pyrazolo[4,3-b]pyridin-7-amine], the concentration for half-maximal inhibition (IC50) on PDE1A is 8.6 nM; against PDE1C (setting [1]), 19 nM.

For the molecule `CCOc1ncccc1-c1cc(NCc2nnn(C)n2)c2c(n1)c(C)nn2C(C)C` [Example 8, 5-(2-ethoxy-3-pyridyl)-1-isopropyl-3-methyl-N-[(2-methyltetrazol-5-yl)methyl]pyrazolo[4,3-b]pyridin-7-amine], the IC50 on PDE1A is 2.9 nM; against PDE1C (setting [1]), 8.9 nM.

Consider `CCOc1ncccc1-c1cc(NCc2cnn(C)c2)c2c(n1)c(C)nn2C(C)C` [Example 9, 5-(2-ethoxypyridin-3-yl)-1-isopropyl-3-methyl-N-((1-methyl-1H-pyrazol-4-yl)methyl)-1H-pyrazolo[4,3-b]pyridin-7-amine], for which the IC50 came out at 2.6 nM against PDE1A and 17 nM against PDE1C (setting [1]).

For the molecule `CCOc1ncccc1-c1cc(NCc2cc(C)no2)c2c(n1)c(C)nn2C(C)C` [Example 10, 5-(2-ethoxy-3-pyridyl)-1-isopropyl-3-methyl-N-[(3-methylisoxazol-5-yl)methyl]pyrazolo[4,3-b]pyridin-7-amine], the IC50 was 4.1 nM on PDE1A and 14 nM at PDE1C (setting [1]).

For the molecule `CCOc1ncccc1-c1cc(NCc2csc(C)n2)c2c(n1)c(C)nn2C(C)C` [Example 11, 5-(2-ethoxy-3-pyridyl)-1-isopropyl-3-methyl-N-[(2-methylthiazol-4-yl)methyl]pyrazolo[4,3-b]pyridin-7-amine], the figures for the IC50 against PDE1A and against PDE1C (setting [1]) were 9.6 nM and 30 nM, respectively.

As to `CCOc1ncccc1-c1cc(NCc2cc(C)no2)c2c(cnn2C(C)C)n1` [Example 42, 5-(2-ethoxy-3-pyridyl)-1-isopropyl-N-[(3-methylisoxazol-5-yl)methyl]pyrazolo[4,3-b]pyridin-7-amine], the results for the IC50 at PDE1A and on PDE1C (setting [1]) were 82 nM and 180 nM, respectively.

For the molecule `CCOc1ncccc1-c1cc(NCc2noc(C)n2)c2c(cnn2C(C)C)n1` [Example 43, 5-(2-ethoxy-3-pyridyl)-1-isopropyl-N-[(5-methyl-1,2,4-oxadiazol-3-yl)methyl]pyrazolo[4,3-b]pyridin-7-amine], the figures for the IC50 at PDE1A and on PDE1C (setting [1]) were 30 nM and 80 nM, respectively.

Consider `CCOc1ncccc1-c1cc(NCc2cc(C)n(C)n2)c2c(cnn2C(C)C)n1` [Example 44, N-[(1,5-dimethylpyrazol-3-yl)methyl]-5-(2-ethoxy-3-pyridyl)-1-isopropyl-pyrazolo[4,3-b]pyridin-7-amine], for which the IC50 against PDE1A was found to be 19 nM; on PDE1C (setting [1]) it was 70 nM.

As for `CCOc1ncccc1-c1cc(NCc2nnco2)c2c(n1)c(C)nn2C(C)C` [Example 59, 5-(2-ethoxy-3-pyridyl)-1-isopropyl-3-methyl-N-(1,3,4-oxadiazol-2-ylmethyl)pyrazolo[4,3-b]pyridin-7-amine], the IC50 against PDE1A is 55 nM; on PDE1C (setting [1]), 120 nM.

As for `CCOc1ncccc1-c1cc(OCc2cnc(C)o2)c2c(n1)c(C)nn2C(C)C` [Example 72, 5-[[5-(2-ethoxy-3-pyridyl)-1-isopropyl-3-methyl-pyrazolo[4,3-b]pyridin-7-yl]oxymethyl]-2-methyl-oxazole], the half-inhibitory concentration (IC50) against PDE1A was 14 nM; at PDE1C (setting [1]) it was 39 nM.

As for `CCOc1ncccc1-c1cc(NCc2ccncn2)c2c(n1)c(C)nn2C(C)C` [Example 73, 5-(2-ethoxy-3-pyridyl)-1-isopropyl-3-methyl-N-(pyrimidin-4-ylmethyl)pyrazolo[4,3-b]pyridin-7-amine], the IC50 on PDE1A worked out at 81 nM; against PDE1C (setting [1]), 140 nM.

As to `CCOc1ncccc1-c1cc(NCc2ncccn2)c2c(n1)c(C)nn2C(C)C` [Example 74, 5-(2-ethoxy-3-pyridyl)-1-isopropyl-3-methyl-N-(pyrimidin-2-ylmethyl)pyrazolo[4,3-b]pyridin-7-amine], the figures for the IC50 on PDE1A and at PDE1C (setting [1]) were 2.1 nM and 8.1 nM, respectively.

Consider `CCOc1ncccc1-c1cc(NCc2nccc(C)n2)c2c(n1)c(C)nn2C(C)C` [Example 75, 5-(2-ethoxy-3-pyridyl)-1-isopropyl-3-methyl-N-[(4-methylpyrimidin-2-yl)methyl]pyrazolo[4,3-b]pyridin-7-amine], for which the IC50 came to 9.9 nM on PDE1A and 33 nM against PDE1C (setting [1]).

`COc1ncccc1CNc1cc(-c2cccnc2OC)nc2c(C)nn(C(C)C)c12` [Example 95, 1-isopropyl-5-(2-methoxy-3-pyridyl)-N-[(2-methoxy-3-pyridyl)methyl]-3-methyl-pyrazolo[4,3-b]pyridin-7-amine] had an IC50 on PDE1A of 42 nM. This lies in the double-digit nanomolar range.

With `CCCn1cc(CNc2cc(-c3cccnc3OCC)nc3c(C)nn(C(C)C)c23)cn1` [Example 110, 5-(2-ethoxy-3-pyridyl)-1-isopropyl-3-methyl-N-[(1-propylpyrazol-4-yl)methyl]pyrazolo[4,3-b]pyridin-7-amine], the IC50 against PDE1A amounted to 11 nM; at PDE1C (setting [1]), 8.5 nM.

On to `CCC1COC(=O)N1c1cc(NCc2cnn(C)c2)c2c(n1)c(C)nn2C(C)C` (centres unmarked) [Example 156, 4-ethyl-3-[1-isopropyl-3-methyl-7-[(1-methylpyrazol-4-yl)methylamino]pyrazolo[4,3-b]pyridin-5-yl]oxazolidin-2-one], for which the IC50 at PDE1C (setting [1]) was 5.1 nM.

On to `CCOc1ncccc1-c1cc(NCc2nncn2C)c2c(n1)c(C)nn2C(C)C` [Example 162, 5-(2-ethoxy-3-pyridyl)-1-isopropyl-3-methyl-N-[(4-methyl-1,2,4-triazol-3-yl)methyl]pyrazolo[4,3-b]pyridin-7-amine], for which the IC50 against PDE1A was found to be 100 nM; against PDE1C (setting [1]) it was 180 nM.

With `Cc1nn(C(C)C)c2c(NCc3cccnc3C(F)(F)F)cc(-c3ccc[nH]c3=O)nc12` [Example 193, 3-[1-isopropyl-3-methyl-7-[[2-(trifluoromethyl)-3-pyridyl]methylamino]pyrazolo[4,3-b]pyridin-5-yl]-1H-pyridin-2-one], the results for the IC50 against PDE1A and against PDE1C (setting [1]) were 320 nM and 880 nM, respectively.

In the case of `CCCOc1ncccc1-c1cc(NCc2cn[nH]c2)c2c(n1)c(C)nn2C(C)C` [Example 196, 1-isopropyl-3-methyl-5-(2-propoxy-3-pyridyl)-N-(1H-pyrazol-4-ylmethyl)pyrazolo[4,3-b]pyridin-7-amine], the figures for the IC50 at PDE1A and on PDE1C (setting [1]) were 18 nM and 27 nM, respectively.

Regarding `Cc1coc(-c2cc(NCc3cnn(C)c3)c3c(n2)c(C)nn3C(C)C)n1` [Example 202, 1-isopropyl-3-methyl-N-((1-methyl-1H-pyrazol-4-yl)methyl)-5-(4-methyloxazol-2-yl)-1H-pyrazolo[4,3-b]pyridin-7-amine], the IC50 on PDE1A amounted to 92 nM; against PDE1C (setting [1]) it was 170 nM.

Broadly, the IC50 is the concentration needed to halve the response being measured.
